Data reported in patent US12714754B2, “Delivery of cyclic compound by using carrier” (priority 2018, dated 2026).

Experiments:
PANC-1 = assay: Toxicity test against cultured cells (CCK-8); type: cell-based; conditions: Homo sapiens, 48 hours, Val concentration, cell survival by CCK-8
Method: (§1) Human pancreatic adenocarcinoma cells (B×PC3 cells, Panc-cells, or MiaPaCa cells) were seeded into a 96-well plate (5,000 cells/well). After 24 hours, a Val-encapsulating polymeric micelle solution prepared by adding 0.3 equivalent of Val to PEG-P(Asp-BH) or Val alone was added at various Val concentrations. After 48 hours, the cells were washed with PBS, and a medium was added. After that, Cell Counting Kit-8 (CCK-8, 10 μL/well) was added to the medium, and 30 minutes later, UV absorbance at 450 nm was measured.

MiaPaCa = assay: Toxicity test against cultured cells (CCK-8); type: cell-based; conditions: Homo sapiens, MIA PaCa-2, 48 hours, Val concentration, cell survival by CCK-8
Method: as §1

BxPC3 = assay: Toxicity test against cultured cells (CCK-8); type: cell-based; conditions: Homo sapiens, BXPC-3, 48 hours, Val concentration, cell survival by CCK-8
Method: as §1

[1] = system: subcutaneous tumor model mice (B×PC3); assay: Antitumor effect on tumor-bearing mice; type: in vivo; conditions: 1.5 mg/kg intraperitoneally
Method: A Val-encapsulating polymeric micelle solution prepared by using PEG-P(Asp-BH) (administration amount of Val: 1.5 mg/kg), a valinomycin solution (1.5 mg/kg), or a gemcitabine solution (80 mg/kg) was intravenously administered (only the valinomycin solution was intraperitoneally administered) to the tail vein of subcutaneous tumor model mice (B×PC3) on day 0, day 2, and day 4, and the sizes of the tumors and the body weights of the mice after lapses of various times were measured (n=4).

With `CC(C)[C@@H]1NC(=O)[C@H](C)OC(=O)[C@@H](C(C)C)NC(=O)[C@@H](C(C)C)OC(=O)[C@H](C(C)C)NC(=O)[C@H](C)OC(=O)[C@@H](C(C)C)NC(=O)[C@@H](C(C)C)OC(=O)[C@H](C(C)C)NC(=O)[C@H](C)OC(=O)[C@@H](C(C)C)NC(=O)[C@@H](C(C)C)OC1=O` [Val, valinomycin] the IC50 (PANC-1) was 8.3 nM, the IC50 (MiaPaCa) was 23.2 nM and the IC50 (BxPC3) was 12.5 nM. The “death of all the mice, time after the initial administration” value [1] was no more than 24 h.
